The results in this text go back to patent US20090143279A1 (priority 2007, published 2009).

For test [1], the system named is cellular dehydrogenase activity. The note with it: Conc 20 μM; for MTT (composite Z-score): normalized score vs mock-treated (DMSO) wells.
The next test has as its system nuOXPHOS transcripts. The test is classed as cell-based, mouse. The note with it: Conc 20 μM; for nucOX (composite Z-score): normalized score vs mock-treated (DMSO) wells.
A further test deals with reactive oxygen species. The class given is cell-based, mouse. As to conditions: Conc 20 μM; for ROS (composite Z-score): normalized score vs mock-treated (DMSO) wells.
For the next test, the system named is OXPHOS gene expression. The class given is cell-based, mouse. As to conditions: Conc 20 μM; for GE-HTS (composite Z-score): normalized score vs mock-treated (DMSO) wells.
A further test has as its system mtOXPHOS transcripts. The class given is cell-based, mouse. As to conditions: Conc 20 μM; for mitoOX (composite Z-score): normalized score vs mock-treated (DMSO) wells.
In test [2] the test system is mitochondrial membrane potential. The test is classed as cell-based, mouse. As to conditions: Conc 20 μM; for ΔΨm (composite Z-score): normalized score vs mock-treated (DMSO) wells.
In the next test the test system is cytochrome c. The test is classed as cell-based, mouse. As to conditions: for cyt c (composite Z-score): normalized score vs mock-treated (DMSO) wells.
Sequence of cytochrome c (P62897 whole entry): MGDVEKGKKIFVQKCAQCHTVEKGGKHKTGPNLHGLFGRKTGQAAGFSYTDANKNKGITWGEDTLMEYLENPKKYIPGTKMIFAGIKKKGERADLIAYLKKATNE
Another test relates to C2C12 myotubes. The note with it: Conc 20 μM; for Viability (composite Z-score): normalized score vs mock-treated (DMSO) wells.
Setting [3] is: composite Z-score vs mock-treated (DMSO) wells.
[4] abbreviates: composite Z-score vs mock-treated (DMSO) wells, Conc 20 μM.
[5] abbreviates: normalized composite Z-score vs mock-treated (DMSO) wells.
Setting [6] is: normalized composite Z-score vs mock-treated (DMSO) wells, Conc 20 μM.
Setting [7] is: composite Z-score vs DMSO wells.
Where [8] appears, read: composite Z-score vs DMSO wells, Conc 20 μM.

Read-outs that look alike come from different tables or passages of the source.

In test [1] (setting [3]), `Cc1ccc2c(c1)CC[C@H]1CC(=O)CC[C@]21C` showed an MTT of −2.132. The same compound registered a nucOX with nuOXPHOS transcripts (setting [3]) of 0.870. Also, the ROS in the test on reactive oxygen species (setting [3]) stood at 0.072. Also, the GE-HTS in the test with OXPHOS gene expression (setting [3]) amounted to 0.903. In the test on mtOXPHOS transcripts (setting [3]), this compound gave a mitoOX of 0.748. Besides, the ΔΨm in test [2] (setting [3]) was −0.470. For the same compound, the cyt c with cytochrome c (setting [4]) turned out to be 0.009. The compound also yielded a Viability with C2C12 myotubes (setting [3]) of −0.093.
In test [1] (setting [5]), `CC(=O)O[C@@H]1CC2C(C)(C)C(=O)CC[C@]2(C)C2CC[C@]3(C)C(=CC(=O)O[C@H]3c3ccoc3)[C@@]21C` (stereo partly shown) [dihydrodeoxygedunin] returned an MTT of −0.637. This compound also showed a nucOX with nuOXPHOS transcripts (setting [5]) of −1.073. In the test with reactive oxygen species (setting [5]), this compound had an ROS of 1.030. This compound yielded a GE-HTS with OXPHOS gene expression (setting [5]) of −1.009. In the test with mtOXPHOS transcripts (setting [5]), this compound returned a mitoOX of −0.631. Besides, the ΔΨm in test [2] (setting [5]) is reported as 0.443. This compound also had a cyt c in the test on cytochrome c (setting [6]) of 0.751. This compound returned a Viability in the test with C2C12 myotubes (setting [5]) of −0.004.
In test [1] (setting [7]), `CCOC(=O)[N-]c1cn(N2CCOCC2)n[o+]1` [molsidomine] yielded an MTT of −0.651. In the test on nuOXPHOS transcripts (setting [7]), this compound had a nucOX of 0.331. Further, the ROS in the test on reactive oxygen species (setting [7]) is listed as −0.398. Moreover, the GE-HTS in the test on OXPHOS gene expression (setting [7]) was 0.250. The mitoOX in the test with mtOXPHOS transcripts (setting [7]) worked out at 0.106. For the same compound, the ΔΨm in test [2] (setting [7]) is given as −0.537. Further, the cyt c is −0.533 in the test on cytochrome c and 0.339 with cytochrome c (setting [8]). In addition, the Viability with C2C12 myotubes (setting [7]) is −0.665.
`C[N+]1(C)CCCC(OC(=O)C(O)(c2ccccc2)c2ccccc2)C1` (stereo not shown) [mepenzolate]: the MTT in test [1] (setting [7]) is listed as −0.894. In the test with nuOXPHOS transcripts (setting [7]), this compound had a nucOX of 0.062. Also, the ROS with reactive oxygen species (setting [7]) is 0.368. In addition, the GE-HTS with OXPHOS gene expression (setting [7]) was −0.025. The mitoOX with mtOXPHOS transcripts (setting [7]) is −0.129. The compound also displayed a ΔΨm in test [2] (setting [7]) of 1.198. Besides, the cyt c was 0.666 in the test on cytochrome c and 0.855 in the test with cytochrome c (setting [8]). For the same compound, in the test on C2C12 myotubes (setting [7]), the Viability is on record as 0.333.
Consider `CC(=O)O[C@@H]1CC2C(C)(C)CCC[C@]2(C)C2CC[C@]3(C)C(=CC(=O)O[C@H]3c3ccoc3)[C@@]21C` (stereo partly shown) [deoxodeoxydihydrogedunin], for which the MTT in test [1] (setting [3]) was −0.551. The nucOX with nuOXPHOS transcripts (setting [3]) is reported as −1.370. Also, in the test with reactive oxygen species (setting [3]), the ROS was determined as 0.995. Further, the GE-HTS in the test with OXPHOS gene expression (setting [3]) is reported as −1.452. The compound also displayed a mitoOX in the test with mtOXPHOS transcripts (setting [3]) of −1.397. This compound displayed a ΔΨm in test [2] (setting [3]) of 0.941. This compound also registered a cyt c in the test with cytochrome c (setting [4]) of 0.837. In addition, in the test on C2C12 myotubes (setting [3]), the Viability is 0.876.
On to “3beta-hydroxydeoxydesacetoxy-7-oxogedunin”, for which, in test [1], the “MTT (composite Z-score)” value is recorded as −0.615. Moreover, the “nucOX (composite Z-score)” value in the test on nuOXPHOS transcripts was −1.027. Besides, in the test on reactive oxygen species, the “ROS (composite Z-score)” value was determined as 0.662. The “GE-HTS (composite Z-score)” value in the test with OXPHOS gene expression is given as −0.864. In the test with mtOXPHOS transcripts, the “mitoOX (composite Z-score)” value is −0.319. Moreover, in test [2], the “ΔΨm (composite Z-score)” value is −0.064. For the same compound, the “cyt c (composite Z-score)” value in the test on cytochrome c (Conc 20 μM) stood at 0.306. Further, in the test on C2C12 myotubes, the “Viability (composite Z-score)” value came to 0.688.
The compound `CO[C@H]1C[C@H](O[C@H]2[C@H](C)[C@@H](O[C@@H]3O[C@H](C)C[C@H](N(C)C)[C@H]3OC(C)=O)[C@@H](C)C[C@@]3(CO3)C(=O)[C@H](C)[C@@H](OC(C)=O)[C@@H](C)[C@@H](C)OC(=O)[C@@H]2C)O[C@@H](C)[C@@H]1OC(C)=O` [troleandomycin] displayed an MTT in test [1] (composite Z-score vs DMSO) of −1.250. In addition, the nucOX in the test with nuOXPHOS transcripts (composite Z-score vs DMSO) is reported as −1.277. Besides, the ROS in the test with reactive oxygen species (composite Z-score vs DMSO) worked out at 0.099. The same compound had a GE-HTS in the test on OXPHOS gene expression (composite Z-score vs DMSO) of −1.234. For the same compound, the mitoOX with mtOXPHOS transcripts (composite Z-score vs DMSO) was −0.905. The compound further displayed a ΔΨm in test [2] (composite Z-score vs DMSO) of −0.780. Also, the cyt c in the test on cytochrome c (composite Z-score vs DMSO, Conc 20 μM) is −0.063. This compound returned a Viability in the test on C2C12 myotubes (composite Z-score vs DMSO) of −1.520.
On to `O=C(/C=C/c1ccccc1)c1ccc(O[C@@H]2O[C@H](CO)[C@@H](O)[C@H](O)[C@H]2O)cc1O` [2′,4′-dihydroxychalcone 4′-glucoside], for which the “MTT (composite Z-score)” value in test [1] was −1.358. Also, the “nucOX (composite Z-score)” value with nuOXPHOS transcripts is reported as −0.247. For the same compound, the “ROS (composite Z-score)” value in the test with reactive oxygen species is 1.144. Moreover, the “GE-HTS (composite Z-score)” value with OXPHOS gene expression is −0.189. For the same compound, the “mitoOX (composite Z-score)” value in the test with mtOXPHOS transcripts was found to be 0.004. The “ΔΨm (composite Z-score)” value in test [2] is recorded as −0.532. In the test on cytochrome c (Conc 20 μM), the “cyt c (composite Z-score)” value was −0.225. In addition, the “Viability (composite Z-score)” value in the test with C2C12 myotubes is on record as 0.556.
For `CCOC(=O)CCCCCCCCCCCCC1C=CCC1` (stereo not shown) [chaulmoogric acid, ethyl ester], the MTT in test [1] (setting [7]) is −0.612. Also, the nucOX in the test on nuOXPHOS transcripts (setting [7]) is −0.876. The compound further had an ROS in the test on reactive oxygen species (setting [7]) of 0.513. For the same compound, the GE-HTS in the test with OXPHOS gene expression (setting [7]) was −0.730. Also, the mitoOX in the test on mtOXPHOS transcripts (setting [7]) is on record as −0.265. In test [2] (setting [7]), this compound came in with a ΔΨm of −0.536. In the test on cytochrome c (setting [8]), this compound gave a cyt c of 0.617. This compound also had a Viability in the test on C2C12 myotubes (setting [7]) of −0.015.
For `COc1cc(C)c(C(=O)O)c(O)c1` [everninic acid], the MTT in test [1] (setting [5]) is listed as −1.123. The same compound gave a nucOX in the test on nuOXPHOS transcripts (setting [5]) of 1.517. Further, the ROS in the test with reactive oxygen species (setting [5]) is on record as 0.423. Moreover, the GE-HTS in the test on OXPHOS gene expression (setting [5]) is reported as 1.491. Further, the mitoOX in the test on mtOXPHOS transcripts (setting [5]) came out at 1.116. The compound also had a ΔΨm in test [2] (setting [5]) of −0.942. For the same compound, in the test on cytochrome c (setting [6]), the cyt c is on record as 0.115. This compound had a Viability with C2C12 myotubes (setting [5]) of −0.592.
